Reference: patent US5070207A, “Phospholipase A2 inhibitors” (American Home Products Corporation, priority 1990, dated 1991)

Tested on: PLA2 (A. piscivorus piscivorus) induced paw edema
Assay: in vivo PLA2 murine paw edema assay
Parameters: species or system mouse (male CD-1)
Details: for ED50: Mus musculus, ip
Protocol: The ability of the compounds of the invention to inhibit paw edema induced by the exogenous administration of PLA2 is measured in the in vivo PLA2 murine paw edema assay.
Non-fasted, male CD-1 mice (8 weeks old; 31-36 grams) are placed in plastic boxes in groups of six. The right hind paw volume is measured using mercury plethysmography (zero time). Compounds are dosed orally (0.5 mL of 0.5% Tween-80) 1 or 3 hours prior to PLA2 injection or intravenously (0.2 mL in 0.3% dimethylsulfoxide/saline) 3 minutes prior to PLA2 injection. A solution of purified PLA2, from the diamond back cotton mouth snake (A. piscivorus piscivorus) is prepared in saline at a concentration of 6 μg/mL. Fifty (50) μL (0.3 μg) of this PLA2 solution is injected subcutaneously into the right hind paw with a plastic 1 mL plastic syringe (27 gauge, 1" needle). Paw volume of the injected paw is measured again at 10 minutes, 30 minutes and 60 minutes after PLA2 injection. Animals are euthanized with CO2 at the completion of the study.
The paw edema is calculated by subtracting the zero time volume from the volume recorded at each time period. Mean paw edema for each treatment group is then calculated and expressed as (μL±S.E.). Drug effects are expressed as a percent change from control (vehicle) values. Statistical significance is determined by a oneway analysis of variance with LSD comparison to control (p<0.05). ED50 's are determined using repression analysis.

COc1cccc2c1cc([N+](=O)[O-])c1c(C(=O)O)cc3c(c12)OCO3 [Aristolochic Acid, reference compound]
ED50 at +10 min. (p.o., standard drugs): Not Active

C[C@@H]1C[C@H]2[C@@H]3CCC4=CC(=O)C=C[C@]4(C)[C@@]3(F)[C@@H](O)C[C@]2(C)[C@@]1(O)C(=O)CO [Dexamethasone, reference compound]
ED50 at +10 min. (p.o. 3 hr, standard drug): 10 mg/kg

O=C(C#CCCCOc1ccc(Cl)cc1)C(F)(F)F [Example 1, 7-(4-Chlorophenoxy)-1,1,1-trifluoro-3-heptyn-2-one]
% Change in Edema 10 min (10 mg/kg i.v.): -64%
% Change in Edema 30 min (10 mg/kg i.v.): -34%
% Change in Edema 60 min (10 mg/kg i.v.): -39%
% Change in Edema 10 min (100 mg/kg p.o.): -26%
% Change in Edema 30 min (100 mg/kg p.o.): -37%
% Change in Edema 60 min (100 mg/kg p.o.): -23%
ED50: 3 mg/kg

O=C(C#CCCCn1c2ccccc2c2ccccc21)C(F)(F)F [Example 2, 7-(9H-Carbazol-9-yl)-1,1,1-trifluoro-3-heptyn-2-one]
ED50: 1 mg/kg

O=C(C#CCCCOc1ccc(F)cc1)C(F)(F)F [Example 3, 1,1,1-Trifluoro-7-(4-fluorophenoxy)-3-heptyn-2-one]
ED50: 30 mg/kg

CC(C)(C)c1ccc(OCCCC#CC(=O)C(F)(F)F)cc1 [Example 4, 7-[4-(1,1-Dimethylethyl)phenoxy]-1,1,1-trifluoro-3-heptyn-2-one]
% Change in Edema 10 min (30 mg/kg i.p.): -45%

O=C(C#CCCCOc1ccc(Cl)cc1)C(F)(F)CCc1ccccc1 [Example 7, 9-(4-Chlorophenoxy)-3,3-difluoro-1-phenyl-5-nonyn-4-one]
ED50: 3 mg/kg

COc1ccc2cc([C@H](C)C(=O)O)ccc2c1 [Naproxen, reference compound]
ED50 at +10 min. (p.o., standard drugs): 18 mg/kg

Luffarrellolide [reference compound]
ED50 at +10 min. (p.o., standard drugs): Not Active
